Source: US9149475B2, “Protein kinase C inhibitors and uses thereof” (Rigel Pharmaceuticals, Inc., priority 2009, dated 2015)

tested on: Human primary T cells; assay: IL-2 ELISA, human primary T cell, anti-CD3+CD28+ (whole cell assay); assay type: cell-based; settings: Homo sapiens, T-cell, 24 h, human primary T cells stimulated with anti-CD3 + anti-CD28, 24 hours
Procedure, shortened: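 IL-2 secreted over 24 h at 37° C was quantified by ELISA after plate-bound αCD3 (1 μg/ml) and αCD28 (5 μg/ml) stimulation, or PMA (0.5 ng/ml) with ionomycin (0.1 μM) as counter-screen. Cells were IL-2-starved primary human T cells, expanded from volunteer PBMC and exposed to compound for 1 hr beforehand.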

IC50 | Structure (SMILES)
< 250 nM | CC(C)Oc1ncc(Nc2ncc(F)c(NC3CC(C)(C)N(C)C(C)(C)C3)n2)cc1-c1nnnn1C [Compound I-126, 5-fluoro-N2-(6-isopropoxy-5-(1-methyl-1H-tetrazol-5-yl)pyridin-3-yl)-N4-(1,2,2,6,6-pentamethylpiperidin-4-yl)pyrimidine-2,4-diamine]
< 250 nM | CC1(C)CC(Nc2nc(Nc3cc(C4CC4)cc(-n4cnnn4)c3)ncc2F)CC(C)(C)N1 [III-116, N^2-(3-cyclopropyl-5-(1H-tetrazol-1-yl)phenyl)-5-fluoro-N^4(2,2,6,6-tetramethylpiperidin-4-yl)pyrimidine-2,4-diamine]
> 1000 nM | Cn1nnnc1-c1cc(Nc2ncc(F)c(NC3CC(C)(C)NC(C)(C)C3)n2)cc(OC2COC2)c1 [III-145, 5-fluoro-N2-(3-(1-methyl-1H-tetrazol-5-yl)-5-(oxetan-3-yloxy)phenyl)-N4-(2,2,6,6-tetramethylpiperidin-4-yl)pyrimidine-2,4-diamine]
< 250 nM | Cc1ccc(Nc2ncc(F)c(NC3CC(C)(C)N(C)C(C)(C)C3)n2)cc1-c1nnnn1C [III-64, 5-fluoro-N2-(4-methyl-3-(1-methyl-1H-tetrazol-5-yl)phenyl)-N4-(1,2,2,6,6-pentamethylpiperidin-4-yl)pyrimidine-2,4-diamine]
500 to 1000 nM | CC(C)Oc1ncc(Nc2ncc(C(N)=O)c(NC3CC(C)(C)N(C)C(C)(C)C3)n2)cc1-c1nnnn1C(C)C [Compound I-133, 2-(6-isopropoxy-5-(1-isopropyl-1H-tetrazol-5-yl)pyridin-3-ylamino)-4-(1,2,2,6,6-pentamethylpiperidin-4-ylamino)pyrimidine-5-carboxamide]
< 250 nM | CC(C)N1CCC(Oc2ccc(Nc3ncc(F)c(NC4CC(C)(C)NC(C)(C)C4)n3)cc2C#N)CC1 [Compound I-150, 2-(1-isopropylpiperidin-4-yloxy)-5-(4-(2,2,6,6-tetramethylpiperidin-4-ylamino)-5-fluoropyrimidin-2-ylamino)benzonitrile]
> 1000 nM | CC1(C)CC(Nc2nc(Nc3ccc4c(c3)OCC(CN3CCCCC3)O4)ncc2F)CC(C)(C)N1 (stereo not shown) [II-7, 5-fluoro-N2-(2,3-dihydro-2-((piperidin-1-yl)methyl)benzo[b][1,4]dioxin-6-yl)-N4-(2,2,6,6-tetramethylpiperidin-4-yl)pyrimidine-2,4-diamine]
> 1000 nM | CC1(C)CC(Nc2nc(Nc3ccc(Oc4cccnc4)c(C(F)(F)F)c3)ncc2F)CC(C)(C)N1 [Compound I-59, 5-fluoro-N2-(3-(trifluoromethyl)-4-(pyridin-3-yloxy)phenyl)-N4-(2,2,6,6-tetramethylpiperidin-4-yl)pyrimidine-2,4-diamine]
> 1000 nM | CC(C)Oc1ncc(Nc2ncc(C(N)=O)c(NC3CC(C)(C)N(C)C(C)(C)C3)n2)cc1-c1nnnn1C [Compound I-128, 2-(6-isopropoxy-5-(1-methyl-1H-tetrazol-5-yl)pyridin-3-ylamino)-4-(1,2,2,6,6-pentamethylpiperidin-4-ylamino)pyrimidine-5-carboxamide]
> 1000 nM | CC1(C)CC(Nc2nc(Nc3ccc(OC4CCN(CC(N)=O)CC4)c(OC(F)F)c3)ncc2F)CC(C)(C)N1 [III-36, 2-(4-(2-(Difluoromethoxy)-4-(5-fluoro-4-(2,2,6,6-tetramethylpiperidin-4-ylamino)pyrimidin-2-ylamino)phenoxy)piperidin-1-yl)acetamide]
< 250 nM | [2H]C([2H])([2H])N1C(C)(C)CC(Nc2nc(Nc3cccc(-n4nnnc4C)c3)ncc2F)CC1(C)C [III-115, 5-fluoro-N2-(3-(5-methyl-1H-tetrazol-1-yl)phenyl)-N4-(1-trideuteromethyl-2,2,6,6-tetramethylpiperidin-4-yl)pyrimidine-2,4-diamine]
< 250 nM | COc1cc(Nc2ncc(F)c(NC3CC(C)N(C4CC4)C(C)C3)n2)cc(-n2cnnn2)c1 (stereo not shown) [III-7, N^4-(1-cyclopropyl-2,6-dimethylpiperidin-4-yl)-5-fluoro-N2-(3-methoxy-5-(1H-tetrazol-1-yl)phenyl)pyrimidine-2,4-diamine]

same assay, conditions: human primary T cells stimulated with anti-CD3 + anti-CD28, 24 hours

IC50 | Structure (SMILES)
< 250 nM | COc1ccc(Nc2ncc(F)c(NC3CC(C)(C)NC(C)(C)C3)n2)cc1-n1c(C)ccc1C [Compound I-93, N2-[3-(2,5-Dimethyl-pyrrol-1-yl)-4-methoxy]phenyl-5-fluoro-N4-(2,2,6,6-tetramethylpiperidin-4-yl)-2,4-pyrimidinediamine]
